For series [1], the target named is T1, CD4 (Homo sapiens, UniProt P01730). The series is described as follows: CD4 down-modulation, flow cytometry with FITC-conjugated anti-CD4 (SK3) mAb, SupT1 cells. It is filed as cell-based. On the set-up: To study the effect of the CADA derivatives on surface CD4 antigen expression, MT-4 and SupT1 cells were incubated; endogenous in cells; host or cells: MT-4, SupT1, PBMC. The settings on record: day 4, read-out: IC50 CD4 (50% inhibition of extracellular CD4 expression) (converted). Here is the method: (§1) Flow Cytometric Analyses. To study the effect of the CADA derivatives on surface CD4 antigen expression, MT-4 and SupT1 cells were incubated with a serial 5-fold dilution of the compounds (50, 10, 2, 0.4 and 0.08 μg/ml) or medium at 37° C. Cell surface CD4 antigen expression was analyzed at day 3 (MT-4) or day 4 (SupT1). Briefly, after washing with phosphate-buffered saline (PBS) containing 2% fetal calf serum (FCS), cells were incubated with FITC-conjugated anti-CD4 (SK3) mAb for 30 min at 4° C. As a negative control for a specific background staining, cells were stained in parallel with Simultest Control γ1/γ^2a (Becton Dickinson). Then the cells were washed, fixed with 1% formaldehyde and analyzed by flow cytometry in a FACScalibur (Becton Dickinson, San Jose, Calif., USA). Data were acquired and analyzed with CellQuest software (Becton Dickinson). For the calculation of the CD4 receptor expression, the mean fluorescence intensity (MFI) of each sample was expressed as percentage of the MFI of control cells (after subtracting the MFI of the isotype control). Finally, the IC50 value of the compounds (i.e., the concentration of the compound required for 50% inhibition of extracellular CD4 expression) was calculated.
(A flow cytometer gives signals particle by particle.)

The target of series [2] is T1, CD4. The series is described as follows: CD4 down-modulation, flow cytometry with FITC-conjugated anti-CD4 (SK3) mAb, MT-4 cells. It is filed as cell-based. The settings on record: for IC50: MT-4 cells, day 3, read-out: IC50 CD4 (50% inhibition of extracellular CD4 expression) (converted); for CD4 down-modulating activity compared with CADA or parent analog (in words): structure-activity discussion of Table 5 (MT-4 and SupT1 cells). On the set-up: To study the effect of the CADA derivatives on surface CD4 antigen expression, MT-4 and SupT1 cells were incubated; endogenous in cells; host or cells: MT-4, SupT1, PBMC. Here is the method: as §1, with “Cell surface CD4 antigen expression was analyzed at day 3 (MT-4) or day 4 (SupT1).” left out

Series [3] is described as follows: Cytotoxicity assay (trypan blue exclusion, propidium iodide). In kind it is cell-based, human. The settings on record: human, read-out: CC50 (50% cytotoxic concentration). Here is the method:
Cytotoxicity Assay. Cellular toxicity of the compounds was measured by trypan blue exclusion and also by Propidium Iodide by flow cytometry after 3 or 4 days of incubation, in parallel with the CD4 antigen expression. The CC50 value of each CADA analog is the concentration (in μg/ml) required to reduce the viability of the cells by 50%.

In series [4] the target is T1, CD4. The series is described as follows: Cell surface CD4 expression by flow cytometry (anti-CD4 mAb Leu3a-PE). The arrangement: To study the effect of the CADA derivatives on surface CD4 antigen expression, MT-4 and SupT1 cells were incubated; endogenous in cells; host or cells: MT-4, SupT1, PBMC. It is filed as cell-based. Here is the method: FIGS. 2A-2C. Surface CD4 expression in MT-4 cell line, SupT1 cell line and PBMCs after incubation with CADA hydrochloride (3.2 or 16 μM) for 1 and 4 days. (A) Cell surface CD4 expression of control MT-4 cells and MT-4 cells treated with CADA (3.2 μM) for 1 day or 4 days. (B) Cell surface CD4 expression of control SupT1 cells and SupT1 cells treated with CADA (3.2 μM) for 1 day or 4 days. (C) Cell surface CD4 expression of control PBMCs and PBMCs treated with CADA (16 μM) for 1 day or 4 days. The cells were stained with anti-CD4 mAb (Leu3a-PE). Percentages of fluorescent cells and MFI (mean fluorescence intensity) are indicated in each histogram.
FIG. 4. Comparison of the effects on CD4 modulation by ATA (24 μM), CADA hydrochloride (16 μM) and PMA (8 nM) in SupT1 cells after incubation with the compounds analyzed after 20 minutes, 4 hours, 1 day and 4 days.
Cells were incubated with CADA hydrochloride and the CD4 expression on the cell surface was analyzed. […] In peripheral blood mononuclear cells (PBMCs), the percentage of CD4 expression decreased to 0.2% after incubation with CADA (16 μM) for 4 days (FIG. 2).
Expression of various other surface antigens was also examined in MT-4 cells, SupT1 cells and PBMCs after incubation with CADA (16 μM) or CADA-free medium at 37° C. for 4 days. After washing with phosphate-buffered saline (PBS) containing 2% FCS(fetal calf serum), the cells were incubated with mAb (as indicated in Table 1) for 20 min at 4° C. Then the cells were washed, fixed with 1% formaldehyde and analyzed by flow cytometry. All mAbs were purchased from Becton-Dickinson (Erembodegem, Belgium).
CADA was compared with ATA and PMA with regard to their down-modulating effects. […] At day 4, the CD4 expression in SupT1 cells treated with CADA reduced to 1.2%.

A further series concerns HIV-1 strain NL4.3. The series is described as follows: Anti-HIV-1 assay in MT-4 cells (p24 Ag ELISA, Example 3). It is filed as cell-based. Here is the method:
Antiviral Assays. For HIV-1, MT-4 cells were infected with the HIV-1 strain NL4.3. Briefly, five-fold dilutions of the compounds (in 100 μl) were added to 96-well flat bottom plates (Iwaki, Japan). Then, to each well, 7.5×10^4 MT-4 cells were added in 50 μl medium, followed by 50 μl of diluted HIV-1 stock (strain NL4.3). Cytopathic effect (CPE) induced by the virus was checked regularly microscopically. When strong CPE was observed (after 3 to 5 days of incubation) in untreated HIV-1 infected cells, the supernatant was collected, stored at −20° C. and analyzed for HIV-1 core antigen by p24 Ag ELISA (NEN™, PerkinElmer Life Sciences, Boston, Mass.). Finally, the IC50 value of the compounds (i.e., the concentration of the compound required for 50% reduction of HIV infection as measured by viral p24 antigen level in the supernatant of infected MT-4 cells) was calculated.
Background: In an ELISA, binding on a coated surface is turned into a signal by an enzyme label.

The subject of another series is HHV-7 (KHR strain). The series is described as follows: Anti-HHV-7 assay in SupT1 cells (antigen expression, flow cytometry, Example 3). It is filed as cell-based. The procedure:
For HHV-7, five-fold dilutions of the compounds were added in 500 μl culture medium in 24-well flat bottom plates (Iwaki, Japan), whereupon 2×10^5 SupT1 cells were added in 400 μl culture medium. After 30 min incubation at room temperature, 100 μl of HHV-7 stock was added to each well. HHV-7-infected and mock-infected SupT1 cells were cultured in a final volume of 1 ml medium in the absence of the compounds. On day 4, half of the medium and the cells were replaced and fresh medium without new compound was added. This procedure was repeated every 2 or 3 days. The CPE was checked regularly microscopically. When CPE was observed, the HHV-7 antigen expression was monitored by flow cytometry, as described previously (Zhang, Y. et al. (1999) “Selective activity of various antiviral compounds against HHV-7 infection Antiviral Res. 43, 23-35.)

The mark [5] stands for this setting: Human immunodeficiency virus 1, MT4, MT-4 cells, read-out: IC50 HIV-1 (NL4.3), p24 Ag ELISA.
The mark [6] stands for this setting: SUP-T1, SupT1 cells, read-out: IC50 HHV-7 (50% reduction of HHV-7 antigen expression).

Converted amounts (≈) assume the structure as drawn. Read-outs that look alike come from different tables or passages of the source.

The text below walks through data of US20040220164A1, “Triaza compound immunoregulatory agents” (priority 2001, published 2004).

Regarding `C=C1CN(S(=O)(=O)c2ccc(C)cc2)CCCN(CC2CC2)CCCN(S(=O)(=O)c2ccc(C)cc2)C1` [QJ041], the IC50 was 7.6 µM on CD4 [1], 6.38 µM on CD4 [2], 3.66 µg/mL (≈ 6.71 µM) in the series on HIV-1 strain NL4.3 (setting [5]) and 1.76 µg/mL (≈ 3.22 µM) with HHV-7 (KHR strain) (setting [6]). Moreover, the “CD4 down-modulating activity compared with CADA or parent analog (in words)” value at CD4 [2] was “reduced the activity”. Moreover, the results for the CC50 in series [3] (MT-4 cells) and in series [3] (SupT1 cells) were 18.6 µg/mL (≈ 34.1 µM) and 21.9 µg/mL (≈ 40.1 µM), respectively. Besides, the “down-regulation of CD4 expression (in words)” value (shortened to “down-regulation”) on CD4 [4] is listed as “down-regulate CD4 expression”.
On to `C=C1CN(S(=O)(=O)c2ccc(C)cc2)CCCN(CC(C)CC)CCCN(S(=O)(=O)c2ccc(C)cc2)C1` (stereo not drawn) [QJ037], for which the half-maximal inhibitory concentration (IC50) is 1.23 µM at CD4 [1], 0.943 µM at CD4 [2], 0.48 µg/mL (≈ 0.854 µM) in the series on HIV-1 strain NL4.3 (setting [5]) and 0.13 µg/mL (≈ 0.231 µM) in the series on HHV-7 (KHR strain) (setting [6]). The CC50 in series [3] (MT-4 cells) is 22.1 µg/mL (≈ 39.3 µM); in series [3] (SupT1 cells) it was 24 µg/mL (≈ 42.7 µM). Moreover, the “down-regulation” value on CD4 [4] was “down-regulate CD4 expression”.
In the case of `C=C1CN(S(=O)(=O)c2ccc(C)cc2)CCCN(C2CCCC2)CCCN(S(=O)(=O)c2ccc(C)cc2)C1` [QJ040], the IC50 at CD4 [1] is 14.1 µM; on CD4 [2], 9.54 µM; in the series on HIV-1 strain NL4.3 (setting [5]), 4.23 µg/mL (≈ 7.56 µM); in the series with HHV-7 (KHR strain) (setting [6]), 1.55 µg/mL (≈ 2.77 µM). In addition, the CC50 in series [3] (MT-4 cells) worked out at 17 µg/mL (≈ 30.4 µM); in series [3] (SupT1 cells), 20.5 µg/mL (≈ 36.6 µM). Moreover, on CD4 [4], the “down-regulation” value is reported as “down-regulate CD4 expression”.
With `C=C1CN(S(=O)(=O)c2ccc(C)cc2)CCCN(CCC(C)C)CCCN(S(=O)(=O)c2ccc(C)cc2)C1` [QJ038], the IC50 is 0.854 µM on CD4 [1], 0.73 µM on CD4 [2], 0.31 µg/mL (≈ 0.552 µM) in the series with HIV-1 strain NL4.3 (setting [5]) and 0.34 µg/mL (≈ 0.605 µM) in the series with HHV-7 (KHR strain) (setting [6]). In addition, the CC50 in series [3] (MT-4 cells) turned out to be 19.4 µg/mL (≈ 34.5 µM); in series [3] (SupT1 cells), 8.4 µg/mL (≈ 15 µM). The “down-regulation” value on CD4 [4] was “down-regulate CD4 expression”.
Turning to `C=C1CN(S(=O)(=O)c2ccc(C)cc2)CCCN(C(C)CC)CCCN(S(=O)(=O)c2ccc(C)cc2)C1` (stereo not drawn) [QJ036], the IC50 on CD4 [1] was 3.27 µM; on CD4 [2], 2.12 µM; with HIV-1 strain NL4.3 (setting [5]) it was 0.95 µg/mL (≈ 1.73 µM); in the series on HHV-7 (KHR strain) (setting [6]) it was 1.19 µg/mL (≈ 2.17 µM). In addition, the “CD4 down-modulating activity compared with CADA or parent analog (in words)” value on CD4 [2] was “somewhat in between”. The CC50 in series [3] (MT-4 cells) is 20.9 µg/mL (≈ 38.2 µM); in series [3] (SupT1 cells), over 50 µg/mL. For the same compound, on CD4 [4], the “down-regulation” value is recorded as “down-regulate CD4 expression”.
Take `C=C1CN(S(=O)(=O)c2ccc(C)cc2)CCCN(Cc2ccc[nH]2)CCCN(S(=O)(=O)c2ccc(C)cc2)C1` [QJ027]: the IC50 at CD4 [1] was 10.5 µM; on CD4 [2], 6.78 µM; with HIV-1 strain NL4.3 (Human immunodeficiency virus 1, MT4, read-out: IC50 HIV-1 (NL4.3), p24 Ag ELISA) it was 4.4 µg/mL (≈ 7.71 µM); in the series with HHV-7 (KHR strain) (SUP-T1, read-out: IC50 HHV-7 (50% reduction of HHV-7 antigen expression)), 3.1 µg/mL (≈ 5.43 µM). In addition, the “CD4 down-modulating activity, fold less active than CADA” value on CD4 [2] (compared to CADA, MT-4 cells (stated for some compounds)) is reported as 10 fold. The CC50 in series [3] (MT-4 cells) worked out at 20.2 µg/mL (≈ 35.4 µM); in series [3] (SupT1 cells) it was 21.7 µg/mL (≈ 38 µM). The “down-regulation” value on CD4 [4] was “down-regulate CD4 expression”.

The IC50 is the midpoint of a concentration-inhibition curve.
